# Test results reported in patent US20240400542A1 (University of Virginia Patent Foundation, priority 2021, published 2024).
# Key:
# [1] = target: T1, PFKL (Homo sapiens, UniProt P17858); test: In situ gel-based ABPP, blockade of TH211 probe labeling in HEK293T cells; type: cell-based; details: then 25 μM TH211 2 h; for probinding activity (blockade of TH211 probe labeling), protein at ˜80 molecular weight: HEK293T cells in situ, 1 μM compound 1 h
# T1 construct: endogenous in cells; host or cells: HEK293T
# T1 sequence (P17858 1-780): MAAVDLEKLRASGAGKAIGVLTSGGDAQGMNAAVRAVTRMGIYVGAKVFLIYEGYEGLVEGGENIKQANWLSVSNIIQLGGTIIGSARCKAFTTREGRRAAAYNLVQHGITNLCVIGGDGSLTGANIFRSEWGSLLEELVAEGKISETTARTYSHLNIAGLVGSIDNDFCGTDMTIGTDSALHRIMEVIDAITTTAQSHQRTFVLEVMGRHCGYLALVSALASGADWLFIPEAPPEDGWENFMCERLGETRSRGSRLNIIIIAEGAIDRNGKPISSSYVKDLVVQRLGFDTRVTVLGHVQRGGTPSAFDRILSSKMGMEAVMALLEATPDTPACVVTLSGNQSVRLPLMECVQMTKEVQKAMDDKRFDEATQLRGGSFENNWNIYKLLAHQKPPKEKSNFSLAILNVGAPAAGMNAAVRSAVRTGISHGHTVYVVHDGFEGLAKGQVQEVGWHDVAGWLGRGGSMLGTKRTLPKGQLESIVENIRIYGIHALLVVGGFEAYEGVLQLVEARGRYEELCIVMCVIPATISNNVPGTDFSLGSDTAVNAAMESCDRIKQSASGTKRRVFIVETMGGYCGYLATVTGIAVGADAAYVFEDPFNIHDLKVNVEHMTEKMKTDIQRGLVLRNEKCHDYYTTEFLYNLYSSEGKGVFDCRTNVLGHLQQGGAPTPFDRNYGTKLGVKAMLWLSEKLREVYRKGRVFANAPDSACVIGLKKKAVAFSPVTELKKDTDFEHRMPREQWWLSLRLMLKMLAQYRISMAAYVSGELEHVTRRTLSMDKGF
# Procedure: HEK293T cells were incubated in 10 cm petri dishes with DMEM medium supplemented with 10% fetal bovine serum and 1% L-glutamine until the confluency reached about 90%. Aspirate the medium and then add serum-free-medium (SFM) with vehicle only (DMSO) or SuTEx compounds in DMSO, which afforded final concentrations of 0.1% DMSO. After incubation at 37° C. for 1 hrs in CO2 incubator, the medium was aspirated and 25 μM of probe TH211 in SFM was added. After incubation at 37° C. for 2 hrs, the medium was aspirated and the cells were washed off in cold PBS. Centrifuge at 400×g for 5 min to pellet and resuspend pellet again in PBS for 2× total washes. The cell pellets were resuspended and lysed by sonication (1 sec pulse, 20% amplitude, 3 times) in PBS in the presence of EDTA-free protease inhibitor cocktail tablet (Pierce Biotechnology, Waltham, Massachusetts, United States of America). The cell lysates were subject to ultracentrifugation (100,000×g, 45 min at 4° C.) to separate the cytosolic fraction in the supernatant and the membrane fraction as a pellet. Protein concentrations in soluble fraction were measured by the Bio-Rad DC protein assay (Bio-Rad Laboratories, Hercules, California, United States of America). Proteome aliquots (2 mg/mL, 50 μL) were conjugated with fluorophore which was accomplished by copper-catalyzed azide-alkyne cycloaddition (CuAAC) with rhodamine-azide (TAMRA-azide, 1.25 mM, 1 μL, final concentration of 25 μM) in the presence of tris(2-carboxyethyl)phosphine (TCEP, 50 mM fresh in water, 1 μL, final concentration of 1 mM), tris[(1-benzyl-1H-1,2,3-triazol-4-yl)methyl]amine (TBTA, 1.7 mM in 4:1 t-butanol/DMSO, 3 μL, final concentration of 100 μM) and CuSO4 (50 mM, 1 μL, final concentration of 1 mM). After 1 hr incubation at room temperature, reactions were quenched by adding 4×SDS-PAGE loading buffer and beta-mercaptoethanol (17 μL) and samples were resolved by SDS-PAGE followed by in-gel fluorescence scanning.
# (§1) Some SuTEx analogues with RF001 fragment were synthesized and characterized. The in situ competition assay was then conducted, during which HEK293T cells were treated with 1 μM of a SuTEx analogue for 1 h, followed by treatment with 25 μM of TH211 as the probe for 2 h. […] The analogues with electron-donating groups like methyl or methoxy on the para position of phenyl performed better than those with electron-withdrawing groups. Under the same condition, the IC5o of TH220 was determined as 305.6 nM. The identity of the bound protein was studied by LC-MS/MS. The assay results indicated PFKL as the potential target and that binding sites include Y674 and K677, since the ratio trends are the same as that found in the in situ competition assay. To study selective targeting of PFKL by the series of SuTEx analogues, Fag-PFKL, Flag-PFKM, and Flag-PFKP were overexpressed in HEK293T cells and in vitro competition assays were performed for comparison. […] To optimize these SuTEx ligands, another series of derivatives were synthesized and evaluated with TH233 as a negative control and TH220 as positive control, respectively. […] Compared to TH220, the probinding activity of XJ-2-103 with trifluoromethyl group at para position of the phenyl ring is not as good, which is consistent with the results shown in FIG. 18A.
# [2] = target: T1, PFKL; test: SILAC competitive chemical proteomic assay (TH211 probe, LC-MS/MS); type: cell-based; details: HEK293T in situ, vehicle (light) vs inhibitor 2 μM (heavy) 1 hr, then TH211 50 μM 2 h; protein/site not given
# Procedure: The light and heavy proteomes (2.3 mg/mL, 432 μL) prepared from HEK293T cells that were pretreated in situ with vehicle (DMSO) or the inhibitor (2 μM), respectively, at 37° C. for 1 hr followed by probe TH211 treatment (50 μM) for 2 h, were directly were subjected to click reaction with the desthiobiotin-PEG3-azide (10 mM in DMSO, 10 μL, final concentration 200 μM) in the presence of TCEP (50 mM, 10 μL), TBTA (1.7 mM, 33 μL) and CuSO4 (50 mM, 10 μL) at room temperature for 1 hr. The light and the heavy samples were mixed in the chloroform-methanol extraction step. The subsequent steps including reduction with dithiothreitol, alkylation with iodoacetamide, digestion with Trypsin/Lys-C, enrichment with avidin beads were conducted as previously described^26.
# as §1
# [3] = HPLC solution reactivity of probe with p-cresol (tyrosine mimetic); type: physicochemical; details: UV 254 nm, TMG base, 0° C., longest time point tested 90 min
# Procedure: (§2) Briefly, reaction progress of KY-26 or XO44 with p-cresol or n-butylamine (16.5 μmol, 3.3 eq.) in the presence of TMG base (1,1,3,3-tetramethylguanidine, 1.1 eq) was evaluated by monitoring probe consumption and quantified based on the signal from the caffeine standard using HPLC. Synthetic peptide reactions were conducted by mixing the peptide (Ac-RLNERHYGGLTGLNK-NH2, 50 nmol, 1.0 eq.) with 1.1 eq of TMG. KY-26 (550 nmol, 11.0 eq) was added to the mixture and the reaction was kept at 37° C. until the reaction achieved at least 50% conversion.
# (§3) More particularly, an acetonitrile solution of p-cresol or n-butylamine (16.5 μmol, 3.3 eq.) was mixed with 1.1 eq of TMG. KY-26 or XO44 in ACN:DMF=6:4 (5 μmol, 1.0 eq.) was added to the mixture and the reaction was kept at 0° C. The final molarity for KY-26 or XO44 is 10 mM. Aliquots (50 μl) of the reaction were taken and quenched by adding acetic acid (0.5 M final, 5.0 μmol) and caffeine standard (0.05 M final, 0.5 μmol) at ten-minute intervals for 1.5 hrs. 1.0 μL sample was injected and analyzed by reverse-phase HPLC with mobile phases A (H2O, 0.1% AcOH) and B (CH3CN, 0.1% AcOH) with a gradient of 0-15-85-100% B in 0-0.5-6.5-7 min. UV measurements taken at 254 nm. Reaction progress was evaluated by monitoring KY-26 or XO44 consumption and quantified based on the signal from the caffeine standard. […]
# [4] = HPLC solution reactivity of probe with n-butylamine (lysine mimetic); type: physicochemical; details: TMG base, 0° C., KY-26 compared with p-cresol
# Procedure: as §2, §3
SMILES,SILAC ratios (SR) from competitive chemical proteomic assay [2],"probinding activity (blockade of TH211 probe labeling), protein at ˜80 molecular weight [1]",further results
COc1ccc(S(=O)(=O)n2cc(CCN3CCC(=C(c4ccc(F)cc4)c4ccc(F)cc4)CC3)nn2)cc1,8.41,,"IC50 ([1]; HEK293T cells, compound 1 h, read-out: IC50 against PFKL, in situ TH211 chemical proteomic assay): 0.306 µM"
"Cc1ccc(S(=O)(=O)n2cc(CCN3CCN(C(c4ccc(F)cc4)c4ccc(F)cc4)CC3)nn2)cc1 [TH208, 1-(Bis(4-fluorophenyl)methyl)-4-(2-(1-tosyl-1H-1,2,3-triazol-4-yl)ethyl)piperazine]",1.04,,
"O=S(=O)(c1ccc(F)cc1)n1cc(CCN2CCC(=C(c3ccc(F)cc3)c3ccc(F)cc3)CC2)nn1 [TH221, 4-(Bis(4-fluorophenyl)methylene)-1-(2-(1-((4-fluorophenyl)sulfonyl)-1H-1,2,3-triazol-4-yl)ethyl)piperidine]",2.48,,
"O=S(=O)(C1CC1)n1cc(CCN2CCC(=C(c3ccc(F)cc3)c3ccc(F)cc3)CC2)nn1 [TH223, 4-(bis(4-fluorophenyl)methylene)-1-(2-(1-(cyclopropylsulfonyl)-1H-1,2,3-triazol-4-yl)ethyl)piperidine]",0.95,,
"O=S(=O)(c1ccc2c(c1)OCCO2)n1cc(CCN2CCC(=C(c3ccc(F)cc3)c3ccc(F)cc3)CC2)nn1 [XJ-2-77, 4-(Bis(4-fluorophenyl)methylene)-1-(2-(1-((2,3-dihydrobenzo[b][1,4]dioxin-6-yl)sulfonyl-)-1H-1,2,3-triazol-4-yl)ethyl)piperidine]",,good probinding activity,
O=S(=O)(c1ccc2c(c1)OCO2)n1cc(CCN2CCC(=C(c3ccc(F)cc3)c3ccc(F)cc3)CC2)nn1 [XJ-2-87],,good probinding activity,
"O=S(=O)(c1ccc2c(c1)OC(F)(F)O2)n1cc(CCN2CCC(=C(c3ccc(F)cc3)c3ccc(F)cc3)CC2)nn1 [XJ-2-115, 4-(Bis(4-fluorophenyl)methylene)-1-(2-(1-((2,2-difluorobenzo[d][1,3]dioxol-5-yl)sulfonyl)-1H-1,2,3-triazol-4-yl)ethyl)piperidine]",,good probinding activity,
"COc1ccccc1S(=O)(=O)n1cc(CCN2CCC(=C(c3ccc(F)cc3)c3ccc(F)cc3)CC2)nn1 [XJ-2-141, 4-(Bis(4-fluorophenyl)methylene)-1-(2-(1-((2-methoxyphenyl)sulfonyl)-1H-1,2,3-triazol-4-yl)ethyl)piperidine]",,good probinding activity,
"C#CCNC(=O)c1cc(Nc2cc(C3CC3)[nH]n2)nc(N2CCN(Cc3ccc(S(=O)(=O)F)cc3)CC2)n1 [XO44, reference compound]",,,time to near-complete depletion of probe in reaction with p-cresol [3]: > 90 min; reaction of probe with n-butylamine [4]: minimal reaction
